Test results published in patent US9822114B2, “Tricyclic oxazolidinone antibiotic compounds” (Idorsia Pharmaceuticals Ltd, priority 2008, dated 2017).
In brackets after ≈: the same amount, converted by molar mass.

system: M. catarrhalis A894; assay: Minimal inhibitory concentration (MIC), microdilution method in cation-adjusted Mueller-Hinton Broth (CLSI M7-A7); type: cell-based; conditions: Moraxella catarrhalis, strain A894
Description: Minimal inhibitory concentrations (MICs; mg/1) were determined in cation-adjusted Mueller-Hinton Broth by a microdilution method following the description given in “Methods for Dilution Antimicrobial Susceptibility Tests for Bacteria that Grow Aerobically”, Approved standard, 7th ed., Clinical and Laboratory Standards Institute (CLSI) Document M7-A7, Wayne, Pa., USA, 2006.

Compound | MIC
CCc1ccc2ccc(=O)n3c2c1C(NCCC[C@@H]1CN(c2ccc4c(c2)NC(=O)CS4)C(=O)O1)C3 (mixture of isomers) [Example 179, (RS)-9-ethyl-1-{3-[(R)-2-oxo-3-(3-oxo-3,4-dihydro-2H-benzo[1,4]thiazin-6-yl)-oxazolidin-5-yl]-propylamino}-1,2-dihydro-pyrrolo[3,2,1-ij]quinolin-4-one] | ≤ 0.031 µg/mL
C#Cc1ccc2ccc(=O)n3c2c1C(NCCC[C@@H]1CN(c2ccc4c(c2)NC(=O)CS4)C(=O)O1)C3 (mixture of isomers) [Example 180, (RS)-9-ethynyl-1-{3-[(R)-2-oxo-3-(3-oxo-3,4-dihydro-2H-benzo[1,4]thiazin-6-yl)-oxazolidin-5-yl]-propylamino}-1,2-dihydro-pyrrolo[3,2,1-ij]quinolin-4-one] | ≤ 0.031 µg/mL
O=C1COc2ccc(N3C[C@H](CCNCC4CN5C(=O)CCc6ccc(F)c4c65)OC3=O)cc2N1 (mixture of isomers) [Example 187, (RS)-9-fluoro-1-({2-[(S)-2-oxo-3-(3-oxo-3,4-dihydro-2H-benzo[1,4]oxazin-6-yl)-oxazolidin-5-yl]-ethylamino}-methyl)-1,2,5,6-tetrahydro-pyrrolo[3,2,1-ij]quinolin-4-one] | ≤ 0.031 µg/mL
O=C1CSc2ccc(N3C[C@@H](CCNCC4Cn5c(=O)ccc6ccc(F)c4c65)OC3=O)nc2N1 (mixture of isomers) [Example 197, (RS)-9-fluoro-1-({2-[(R)-2-oxo-3-(3-oxo-3,4-dihydro-2H-pyrido[3,2-b][1,4]thiazin-6-yl)-oxazolidin-5-yl]-ethylamino}-methyl)-1,2-dihydro-pyrrolo[3,2,1-ij]quinolin-4-one] | ≤ 0.031 µg/mL
O=C1CSc2ccc(N3C[C@H](CCNCC4Cn5c(=O)ccc6ccc(F)c4c65)OC3=O)nc2N1 (mixture of isomers) [Example 198, (RS)-9-fluoro-1-({2-[(S)-2-oxo-3-(3-oxo-3,4-dihydro-2H-pyrido[3,2-b][1,4]thiazin-6-yl)-oxazolidin-5-yl]-ethylamino}-methyl)-1,2-dihydro-pyrrolo[3,2,1-ij]quinolin-4-one] | ≤ 0.031 µg/mL
O=C1CSc2ccc(N3C[C@@H](CCCNC4Cn5c(=O)cnc6ccc(F)c4c65)OC3=O)nc2N1 (mixture of isomers) [Example 199, (RS)-7-fluoro-6-{3-[(R)-2-oxo-3-(3-oxo-3,4-dihydro-2H-pyrido[3,2-b][1,4]thiazin-6-yl)-oxazolidin-5-yl]-propylamino}-5,6-dihydro-pyrrolo[1,2,3-de]quinoxalin-3-one] | ≤ 0.031 µg/mL
O=C1CSc2ccc(N3C[C@@H](CCCNC4CN5C(=O)CNc6ccc(F)c4c65)OC3=O)nc2N1 (mixture of isomers) [Example 200, (RS)-7-fluoro-6-{3-[(R)-2-oxo-3-(3-oxo-3,4-dihydro-2H-pyrido[3,2-b][1,4]thiazin-6-yl)-oxazolidin-5-yl]-propylamino}-1,2,5,6-tetrahydro-pyrrolo[1,2,3-de]quinoxalin-3-one] | ≤ 0.031 µg/mL
CN1CC(=O)N2CC(NCCC[C@@H]3CN(c4ccc5c(n4)NC(=O)CS5)C(=O)O3)c3c(F)ccc1c32.Cl.Cl (mixture of isomers) [Example 201, (RS)-7-fluoro-6-{3-[(R)-2-oxo-3-(3-oxo-3,4-dihydro-2H-pyrido[3,2-b][1,4]thiazin-6-yl)-oxazolidin-5-yl]-propylamino}-1-methyl-1,2,5,6-tetrahydro-pyrrolo[1,2,3-de]quinoxalin-3-one dihydrochloride] | ≤ 0.031 µg/mL
Cl.Cl.O=C1CSc2ccc(N3C[C@@H](CCCNC4CN5C(=O)CN(CCCO)c6ccc(F)c4c65)OC3=O)nc2N1 (mixture of isomers) [Example 202, (RS)-7-fluoro-6-{3-[(R)-2-oxo-3-(3-oxo-3,4-dihydro-2H-pyrido[3,2-b][1,4]thiazin-6-yl)-oxazolidin-5-yl]-propylamino}-1-(3-hydroxypropyl)-1,2,5,6-tetrahydro-pyrrolo[1,2,3-de]quinoxalin-3-one dihydrochloride] | 0.063 µg/mL
O=C1CSc2ccc(N3C[C@@H](CCN[C@H]4Cn5c(=O)ccc6ccc(F)c4c65)OC3=O)cc2N1 (racemic) [Example 14, (1RS)-9-fluoro-1-{2-[(RS)-2-oxo-3-(3-oxo-3,4-dihydro-2H-benzo[1,4]thiazin-6-yl)-oxazolidin-5-yl]-ethylamino}-1,2-dihydro-pyrrolo[3,2,1-ij]quinolin-4-one] | ≤ 0.031 µg/mL
O=C1O[C@H](CCNC[C@@H]2Cn3c(=O)ccc4ccc(F)c2c43)CN1c1cc2c(cn1)OCCO2 (racemic) [Example 42, (RS)-1-({2-[(RS)-3-(2,3-dihydro-[1,4]dioxino[2,3-c]pyridin-7-yl)-2-oxo-oxazolidin-5-yl]-ethylamino}-methyl)-9-fluoro-1,2-dihydro-pyrrolo[3,2,1-ij]quinolin-4-one] | 2 µg/mL (≈ 4.29 µM)
O=C1O[C@H](CCNC[C@@H]2Cn3c(=O)ccc4ccc(F)c2c43)CN1c1ccc2c(n1)OCCO2 (racemic) [Example 43, (RS)-1-({2-[(RS)-3-(2,3-dihydro-[1,4]dioxino[2,3-b]pyridin-6-yl)-2-oxo-oxazolidin-5-yl]-ethylamino}-methyl)-9-fluoro-1,2-dihydro-pyrrolo[3,2,1-ij]quinolin-4-one] | 1 µg/mL (≈ 2.14 µM)
O=C1COc2ccc(N3C[C@@H](CCNC[C@@H]4Cn5c(=O)ccc6ccc(F)c4c65)OC3=O)nc2N1 (racemic) [Example 47, (RS)-9-fluoro-1-({2-[(RS)-2-oxo-3-(3-oxo-3,4-dihydro-2H-pyrido[3,2-b][1,4]oxazin-6-yl)-oxazolidin-5-yl]-ethylamino}-methyl)-1,2-dihydro-pyrrolo[3,2,1-ij]quinolin-4-one] | ≤ 0.031 µg/mL
O=C1CSc2ccc(N3C[C@@H](CCCNC[C@@H]4Cn5c(=O)ccc6cccc4c65)OC3=O)cc2N1 (racemic) [Example 83, (RS)-1-({3-[(RS)-2-oxo-3-(3-oxo-3,4-dihydro-2H-benzo[1,4]thiazin-6-yl)-oxazolidin-5-yl]-propylamino}-methyl)-1,2-dihydro-pyrrolo[3,2,1-ij]quinolin-4-one] | ≤ 0.031 µg/mL
O=C1CSc2ccc(N3C[C@H]([C@H](O)CCN[C@H]4Cn5c(=O)ccc6ccc(F)c4c65)OC3=O)cc2N1 (racemic) [Example 113, (1RS)-9-fluoro-1-{(3RS)-3-hydroxy-3-[(5RS)-2-oxo-3-(3-oxo-3,4-dihydro-2H-benzo[1,4]thiazin-6-yl)-oxazolidin-5-yl]-propylamino}-1,2-dihydro-pyrrolo[3,2,1-ij]quinolin-4-one] | ≤ 0.031 µg/mL
O=C1CSc2ccc(N3C[C@@H](CCCCN[C@H]4Cn5c(=O)ccc6ccc(F)c4c65)OC3=O)cc2N1 (racemic) [Example 159, (RS)-9-fluoro-1-{4-[(RS)-2-oxo-3-(3-oxo-3,4-dihydro-2H-benzo[1,4]thiazin-6-yl)-oxazolidin-5-yl]-butylamino}-1,2-dihydro-pyrrolo[3,2,1-ij]quinolin-4-one] | ≤ 0.031 µg/mL
COC(=O)[C@H]1[C@H](NCCC[C@@H]2CN(c3ccc4c(c3)NC(=O)CS4)C(=O)O2)c2c(F)ccc3ccc(=O)n1c23 (relative stereo) [Example 181, (1R*,2R*)-9-fluoro-4-oxo-1-{3-[(R)-2-oxo-3-(3-oxo-3,4-dihydro-2H-benzo[1,4]thiazin-6-yl)-oxazolidin-5-yl]-propylamino}-1,2-dihydro-4H-pyrrolo[3,2,1-ij]quinoline-2-carboxylic acid methyl ester] | ≤ 0.031 µg/mL
O=C1CSc2ccc(N3C[C@@H](CCCN[C@@H]4c5c(F)ccc6ccc(=O)n(c56)[C@H]4CO)OC3=O)cc2N1 (relative stereo) [Example 182, (1R*,2R*)-9-fluoro-2-hydroxymethyl-1-{3-[(R)-2-oxo-3-(3-oxo-3,4-dihydro-2H-benzo[1,4]thiazin-6-yl)-oxazolidin-5-yl]-propylamino}-1,2-dihydro-pyrrolo[3,2,1-ij]quinolin-4-one] | ≤ 0.031 µg/mL
C[C@H]1[C@H](NCCC[C@@H]2CN(c3ccc4c(c3)NC(=O)CS4)C(=O)O2)c2c(F)ccc3ccc(=O)n1c23 (relative stereo) [Example 183, (1R*,2S*)-9-fluoro-2-methyl-1-{3-[(R)-2-oxo-3-(3-oxo-3,4-dihydro-2H-benzo[1,4]thiazin-6-yl)-oxazolidin-5-yl]-propylamino}-1,2-dihydro-pyrrolo[3,2,1-ij]quinolin-4-one] | ≤ 0.031 µg/mL

same assay, conditions: strain A894

Compound | MIC for M. catarrhalis A894
Cc1ccc(N2C[C@@H](CCNC[C@@H]3Cn4c(=O)ccc5ccc(F)c3c54)OC2=O)cc1F (racemic) [Example 6, (1RS)-9-fluoro-1-({2-[(RS)-3-(3-fluoro-4-methyl-phenyl)-2-oxo-oxazolidin-5-yl]-ethylamino}-methyl)-1,2-dihydro-pyrrolo[3,2,1-U]quinolin-4-one] | 0.125 µg/mL
O=C1CSc2ccc(N3C[C@@H](CCNCC4Cn5c(=O)ccc6cccc4c65)OC3=O)cc2N1 (mixture of isomers) [Example 53, (RS)-1-({2-[(R)-2-oxo-3-(3-oxo-3,4-dihydro-2H-benzo[1,4]thiazin-6-yl)-oxazolidin-5-yl]-ethylamino}-methyl)-1,2-dihydro-pyrrolo[3,2,1-U]quinolin-4-one] | ≦0.031 mg/l
O=C1CSc2ccc(N3C[C@H](CCNCC4Cn5c(=O)ccc6cccc4c65)OC3=O)cc2N1 (mixture of isomers) [Example 61, (RS)-1-({2-[(S)-2-oxo-3-(3-oxo-3,4-dihydro-2H-benzo[1,4]thiazin-6-yl)-oxazolidin-5-yl]-ethylamino}-methyl)-1,2-dihydro-pyrrolo[3,2,1-U]quinolin-4-one] | ≦0.031 mg/l
O=C1COc2ccc(N3C[C@H](CCNCC4Cn5c(=O)ccc6cccc4c65)OC3=O)cc2N1 (mixture of isomers) [Example 62, (RS)-1-({2-[(S)-2-oxo-3-(3-oxo-3,4-dihydro-2H-benzo[1,4]oxazin-6-yl)-oxazolidin-5-yl]-ethylamino}-methyl)-1,2-dihydro-pyrrolo[3,2,1-U]quinolin-4-one] | ≦0.031 mg/l
